Source: patent US20060223996A1, “IL-12 modulatory compounds” (Synta Pharmaceuticals Corp., priority 2004, published 2006)

System: IL-12
Experiment: Human in vitro assay: inhibition of IL-12 production in IFNγ/LPS- or IFNγ/SAC-stimulated human PBMC or THP-1 cells (ELISA)
Format: cell-based
Conditions: read-out: IC50 Range (representative in vitro IC50 data)
Excerpt: The biological activities of a heterocyclic compound can be evaluated by a number of cell-based assays. One of such assays can be conducted using cells from human peripheral blood mononuclear cells (PBMC) or human monocytic cell line (THP-1). The cells are stimulated with a combination of human interferon-γ (IFNγ) and lipopolysaccharide or a combination of IFNγ and Staphylococcus aureus Cowan I in the presence of a test compound. The level of inhibition of IL-12 production can be measured by determining the amount of p70 by using a sandwich ELISA assay with anti-human IL-12 antibodies. IC50 of the test compound can then be determined. Specifically, PBMC or THP-1 cells are incubated with the test compound. Cell viability was assessed using the bioreduction of MTS [3-(4,5-dimethylthiazol-2-yl)-5-(3-carboxymethoxyphenyl)-2-(4-sulfophenyl)-2H-tetrazolium](Promega, Madison, Wis.).
Human In Vitro Assay. Human PBMC were isolated by centrifugation using Ficoll-Paque (Pharmacia Biotech, Uppsala, Sweden) and prepared in RPMI medium supplemented with 10% fetal calf serum (FCS), 100 U/mL penicillin, and 100 μg/mL streptomycin. PBMC were plated in wells of a 96-well plate at a concentration of 5×10^5 cells/well, and primed by adding IFNγ (30 U/mL) for 22 h and stimulated by adding LPS (1 μg/mL), or by adding IFNγ (100 U/mL) and then stimulated by adding SAC (0.01%). A test pyrimidine compound was dissolved in DMSO, and added to wells of the 96-well plate. The final DMSO concentration was adjusted to 0.25% in all cultures, including the compound-free control. Human THP-1 cells were plated in wells, primed by adding IFNγ (100 U/mL) for 22 h and stimulated by adding SAC (0.025%) in the presence of different concentrations of the pyrimidine compound. Cell-free supernatants were taken 18 h later for measurement of cytokines. Cell viability was assessed using the bioreduction of MTS. Cell survival was estimated by determining the ratio of the absorbance in compound-treated groups versus compound-free control.
The supernatant was assayed for the amount of IL-12p40, IL-12p70, or IL-10 by using a sandwich ELISA with anti-human antibodies, i.e., a Human IL-12 p40 ELISA kit from R&D Systems (Berkeley, Calif.), and a Human IL-12 p70 or IL-10 ELISA kit from Endogen (Cambridge, Mass.). Assays were based on the manufacturer's instructions.
The biological activities of pyrimidine compounds were tested on human PBMC or THP-1 cells.

IC50 [nM] | SMILES
< 1000 | Cc1cccc(NC(=O)Nc2cc(OCCN3CCOCC3)nc(N3CCOCC3)n2)c1 [Compound 9, 1-[2-Morpholin-4-yl-6-(2-morpholin-4-yl-ethoxy)-pyrimidin-4-yl]-3-m-tolyl-urea]
< 1000 | Cc1[nH]c2ccc(NC(=O)c3cc(OCCN4CCOC4=O)nc(N4CCOCC4)n3)cc2c1C [Compound 21, 2-Morpholin-4-yl-6-[2-(2-oxo-oxazolidin-3-yl)-ethoxy]-pyrimidine-4-carboxylic acid (2,3-dimethyl-1H-indol-5-yl)-amide]
< 1000 | Cc1ccc(NC(=O)c2cc(OCCN3CCOCC3)nc(N3CCOCC3)n2)cc1C [Compound 23, 2-Morpholin-4-yl-6-(2-morpholin-4-yl-ethoxy)-pyrimidine-4-carboxylic acid (3,4-dimethyl-phenyl)-amide]
< 1000 | Cc1c(C)n(C)c2ccc(NC(=O)c3cc(OCCN4CCOCC4)nc(N4CCOCC4)n3)cc12 [Compound 24, 2-Morpholin-4-yl-6-(2-morpholin-4-yl-ethoxy)-pyrimidine-4-carboxylic acid (1,2,3-trimethyl-1H-indol-5-yl)-amide]
< 1000 | NC(=O)c1cccc(NC(=O)c2cc(OCCN3CCOCC3)nc(N3CCOCC3)n2)c1 [Compound 25, 2-Morpholin-4-yl-6-(2-morpholin-4-yl-ethoxy)-pyrimidine-4-carboxylic acid (3-carbamoyl-phenyl)-amide]
< 1000 | CN(C)c1cccc(NC(=O)c2cc(OCCN3CCOCC3)nc(N3CCOCC3)n2)c1 [Compound 26, 2-Morpholin-4-yl-6-(2-morpholin-4-yl-ethoxy)-pyrimidine-4-carboxylic acid (3-dimethylamino-phenyl)-amide]
< 1000 | Cc1[nH]c2ccc(NC(=O)c3cc(OCCN4CCOCC4)cc(N4CCOCC4)n3)cc2c1C [Compound 29, 6-Morpholin-4-yl-4-(2-morpholin-4-yl-ethoxy)-pyridine-2-carboxylic acid (2,3-dimethyl-1H-indol-5-yl)-amide]
≥ 1000 | Cc1c(C)n(C)c2ccc(N(C)C(=O)c3cc(OCCN4CCOCC4)nc(N4CCOCC4)n3)cc12 [Compound 31, 2-Morpholin-4-yl-6-(2-morpholin-4-yl-ethoxy)-pyrimidine-4-carboxylic acid methyl-(1,2,3-trimethyl-1H-indol-5-yl)-amide]
≥ 1000 | O=C(Nc1ccc2c(c1)CCC2)c1cc(OCCN2CCOCC2)nc(N2CCOCC2)n1 [Compound 40, 2-Morpholin-4-yl-6-(2-morpholin-4-yl-ethoxy)-pyrimidine-4-carboxylic acid indan-5-ylamide]
≥ 1000 | Cc1[nH]c2c(NC(=O)c3cc(OCCN4CCOCC4)nc(N4CCOCC4)n3)cccc2c1C [Compound 41, 2-Morpholin-4-yl-6-(2-morpholin-4-yl-ethoxy)-pyrimidine-4-carboxylic acid (2,3-dimethyl-1H-indol-7-yl)-amide]
≥ 1000 | Cc1[nH]c2ccc(NC(=O)c3cc(OCCN4CCCCC4)nc(N4CCOCC4)n3)cc2c1C [Compound 42, 2-Morpholin-4-yl-6-(2-piperidin-1-yl-ethoxy)-pyrimidine-4-carboxylic acid (2,3-dimethyl-1H-indol-5-yl)-amide]
≥ 1000 | NC(=O)c1cccc(NC(=O)c2cc(OCCN3CCOC3=O)nc(N3CCOCC3)n2)c1 [Compound 43, 2-Morpholin-4-yl-6-[2-(2-oxo-oxazolidin-3-yl)-ethoxy]-pyrimidine-4-carboxylic acid (3-carbamoyl-phenyl)-amide]
≥ 1000 | Cc1cccc(NC(=O)c2cc(OCCN3CCOC3=O)nc(N3CCOCC3)n2)c1 [Compound 44, 2-Morpholin-4-yl-6-[2-(2-oxo-oxazolidin-3-yl)-ethoxy]-pyrimidine-4-carboxylic acid m-tolylamide]
≥ 1000 | O=C(Nc1cc(-c2cccs2)[nH]n1)c1cc(OCCN2CCOCC2)nc(N2CCOCC2)n1 [Compound 45, 2-Morpholin-4-yl-6-(2-morpholin-4-yl-ethoxy)-pyrimidine-4-carboxylic acid (5-thiophen-2-yl-1H-pyrazol-3-yl)-amide]

The next lines start with the compound.

SMILES | IC50 [nM]
Cc1[nH]c2ccc(NC(=O)c3cc(OCCc4ccccn4)nc(N4CCOCC4)n3)cc2c1C [Compound 2, 2-Morpholin-4-yl-6-(2-pyridin-2-yl-ethoxy)-pyrimidine-4-carboxylic acid (2,3-dimethyl-1H-indol-5-yl)-amide] | < 1000
O=C(Nc1ccc2[nH]ccc2c1)c1cc(OCCc2ccccn2)nc(N2CCOCC2)n1 [Compound 4, 2-Morpholin-4-yl-6-(2-pyridin-2-yl-ethoxy)-pyrimidine-4-carboxylic acid (1H-indol-5-yl)-amide] | < 1000
Cc1cccc(NC(=O)c2cc(OCCc3ccccn3)nc(N3CCOCC3)n2)c1 [Compound 5, 2-Morpholin-4-yl-6-(2-pyridin-2-yl-ethoxy)-pyrimidine-4-carboxylic acid m-tolylamide] | < 1000
CNCCOc1cc(NC(=O)Nc2cccc(C)c2)nc(N2CCOCC2)n1 [Compound 10, 1-[6-(2-Methylamino-ethoxy)-2-morpholin-4-yl-pyrimidin-4-yl]-3-m-tolyl-urea] | < 1000
Cc1cccc(NC(=O)Nc2cc(OCC(C)(C)O)nc(N3CCOCC3)n2)c1 [Compound 11, 1-[6-(2-Hydroxy-2-methyl-propoxy)-2-morpholin-4-yl-pyrimidin-4-yl]-3-m-tolyl-urea] | ≥ 1000
Cc1ccc(NC(=S)Nc2cc(N3CCOCC3)nc(OCCN3CCOCC3)n2)cc1 [Compound 12, 1-[6-Morpholin-4-yl-2-(2-morpholin-4-yl-ethoxy)-pyrimidin-4-yl]-3-p-tolyl-thiourea] | ≥ 1000
Cc1[nH]c2ccc(NC(=O)c3cc(N4CCOCC4)nc(N4CCOCC4)n3)cc2c1C [Compound 22, 2,6-Di-morpholin-4-yl-pyrimidine-4-carboxylic acid (2,3-dimethyl-1H-indol-5-yl)-amide] | < 1000
Cc1[nH]c2ccc(NC(=O)c3cc(OCC[N+]4([O-])CCOCC4)nc(N4CCOCC4)n3)cc2c1C [Compound 27, 2-Morpholin-4-yl-6-[2-(4-oxy-morpholin-4-yl)-ethoxy]-pyrimidine-4-carboxylic acid (2,3-dimethyl-1H-indol-5-yl)-amide] | < 1000
Cc1[nH]c2ccc(NC(=O)c3cc(N4CCOCC4)cc(N4CCOCC4)n3)cc2c1C [Compound 30, 4,6-Di-morpholin-4-yl-pyridine-2-carboxylic acid (2,3-dimethyl-1H-indol-5-yl)-amide] | < 1000
Cc1ccc2nc(NC(=O)c3cc(OCCc4ccccn4)nc(N4CCOCC4)n3)sc2c1 [Compound 32, 2-Morpholin-4-yl-6-(2-pyridin-2-yl-ethoxy)-pyrimidine-4-carboxylic acid (6-methyl-benzothiazol-2-yl)-amide] | ≥ 1000
CCn1c2ccccc2c2ccc(NC(=O)c3cc(OCCc4ccccn4)nc(N4CCOCC4)n3)cc21 [Compound 33, 2-Morpholin-4-yl-6-(2-pyridin-2-yl-ethoxy)-pyrimidine-4-carboxylic acid (9-ethyl-9H-carbazol-2-yl)-amide] | ≥ 1000
Cc1cccc(NC(=O)c2cc(OCCc3ccccn3)nc(N3CCOCC3)n2)n1 [Compound 34, 2-Morpholin-4-yl-6-(2-pyridin-2-yl-ethoxy)-pyrimidine-4-carboxylic acid (6-methyl-pyridin-2-yl)-amide] | ≥ 1000
Cc1ccnc(NC(=O)c2cc(OCCc3ccccn3)nc(N3CCOCC3)n2)c1 [Compound 35, 2-Morpholin-4-yl-6-(2-pyridin-2-yl-ethoxy)-pyrimidine-4-carboxylic acid (4-methyl-pyridin-2-yl)-amide] | ≥ 1000
O=C(Nc1ccc2ncsc2c1)c1cc(OCCc2ccccn2)nc(N2CCOCC2)n1 [Compound 36, 2-Morpholin-4-yl-6-(2-pyridin-2-yl-ethoxy)-pyrimidine-4-carboxylic acid benzothiazol-6-ylamide] | ≥ 1000
O=C(Nc1ccc2ccccc2c1)c1cc(OCCc2ccccn2)nc(N2CCOCC2)n1 [Compound 37, 2-Morpholin-4-yl-6-(2-pyridin-2-yl-ethoxy)-pyrimidine-4-carboxylic acid naphthalen-2-ylamide] | ≥ 1000
O=C(Nc1ccc2ncccc2c1)c1cc(OCCc2ccccn2)nc(N2CCOCC2)n1 [Compound 38, 2-Morpholin-4-yl-6-(2-pyridin-2-yl-ethoxy)-pyrimidine-4-carboxylic acid quinolin-6-ylamide] | ≥ 1000
O=C(Nc1cccc2ncccc12)c1cc(OCCc2ccccn2)nc(N2CCOCC2)n1 [Compound 39, 2-Morpholin-4-yl-6-(2-pyridin-2-yl-ethoxy)-pyrimidine-4-carboxylic acid quinolin-5-ylamide] | ≥ 1000
